Assay results reported in patent publication US9980972B2, “Rho kinase inhibitors for use in treating familial amyotrophic lateral sclerosis” (GEORG-AUGUST-UNIVERSITÄT GÖTTINGEN STIFTUNG ÖFFENTLICHEN …, priority 2012, dated 2018).

Tests used:
[1] = test system: regenerating axons after optic nerve crush lesion; details: high intravitreal dose 40 μmol/l in comparison to medium dose 400 nmol/l; cited from earlier work
[2] = test system: SOD1 G93A mouse model of ALS; assay: Survival (age at death) in SOD1 G93A mouse model of ALS; type: in vivo; details: presymptomatic from d50, 10 mg/kg body weight, male and female
Source text: High-copy B6SJL-Tg(SOD1*G93A)1Gur/J were obtained from Jackson Labs (Stock Number 002726; Bar Harbor, USA) that had originally been produced by Gurney et al. (Gurney, Pu et al. 1994). The colony was maintained by crossing C57BL/6 males harboring the transgene with wild-type SJL females. To verify presence of the transgene in the F1 progeny, tail biopsies were collected from 14-day-old pups and genotyped using PCR. At the age of 35-45 days mice were moved to the testing facility to acclimate to the new environment with a 12-h light/dark cycle before being assigned to a study.
At 50 days (presymptomatic, d50) or 80 days of age (symptomatic, d80) mice were separated into Fasudil-30 (Fas30)- and Fasudil-100 (Fas100)-Treatment or Vehicle Control (Veh) groups. Prior to any treatment, groups were constituted so as to minimize between-group variability by using the following criteria. Groups were balanced with respect to gender and body weight within gender. In addition, groups were age-matched and littermate-matched. […] The study was observer-blinded.
To reach sufficient CSF levels of Fasudil the inventors administered Fasudil (LC Labs, Woburn, USA; product number F-4660) at a low concentration of […] (Fas30) or at a high concentration of 50 mg (Fas100) in 100 ml drinking water. Control groups received the respective amount of isotonic drinking water termed as vehicle (Veh).
Chronic oral treatment with a low dose of Fasudil (F30) or a high dose of Fasudil (F100) was started either presymptomatically at day 50 or symptomatically at day 80 and continued until death.
Survival. Date and cause of death were recorded for each mouse. For humane reasons, animals are closely monitored and sacrificed as moribund prior to actual death using criteria for severe moribundity. To determine duration of survival reliably and humanely, the moribund state, defined as the inability of mice to right themselves 30 seconds after being placed on a side (a neurological score of 4) was used. The moribund mice were scored as “dead”, and were euthanized using carbon dioxide.
The data were then analyzed using Kaplan-Meier survival fit analysis with the Log-Rank and Wilcoxon tests for statistical significance. Cox proportional hazards analysis was also performed to determine hazard ratios and test for statistical significance of their differences using the Effect Likelihood Chi Square test. Statistical analyses were performed using Statistica 9.1 (StatSoft, Hamburg, Germany). P-values less than 0.05 were taken to be statistically significant.
The criteria to terminate the therapy study (later referred to as time of death) were fulfilled if the animals had reached the terminal neurological scoring or had lost a defined percentage of the maximal body weight. This time point then reflects the survival time of the animals whereas disease duration was measured from onset of disease until time of death.

Row | Structure (SMILES) | number of regenerating axons after optic nerve crush lesion [1] | survival [2]
1 | Cc1cncc2cccc(S(=O)(=O)N3CCCNC[C@@H]3C)c12 [dimethyl-fasudil, (S)-(+)-2-Methyl-1-[(4-methyl-5-isoquinolinyl)sulfonyl]-hexahydro-1H-1,4-diazepine] | significantly reduced | –
2 | C[C@@H](N)[C@H]1CC[C@H](C(=O)Nc2ccncc2)CC1 [Y-27632] | – | no significant effects
